Results taken from patent publication US8759348B2, “Use of 4-(pyrrolidin-1-yl)quinoline compounds to kill clinically latent microorganisms” (Helperby Therapeutics Limited, priority 2007, dated 2014).

Columns and labels:
[1] = tested on: Staph. aureus stationary phase bacteria; experiment: Bactericidal activity against stationary-phase cultures (CFU counts); type: cell-based, Staphylococcus aureus; conditions: 5 μg/mL of test compound
[2] = tested on: Streptococcus agalactiae stationary phase bacteria; experiment: as above; type: cell-based; conditions: 10 μg/mL of test compound
[3] = tested on: methicillin-resistant Staph. aureus stationary phase bacteria; experiment: as above; type: cell-based, Methicillin resistant S. aureus (MRSA); conditions: MRSA stationary phase, 10 μg/mL of test compound
[4] = tested on: stationary phase Candida albicans; experiment: Activity against stationary-phase cultures of Candida albicans (CFU counts); type: cell-based; conditions: 10 μg/mL of test compound
[5] = tested on: stationary phase Mycobacterium tuberculosis; experiment: Bactericidal activity against M. tuberculosis stationary-phase cultures (Model 1); type: cell-based; conditions: 10 μg/mL of test compound
[6] = tested on: Streptococcus pyogenes stationary phase bacteria; experiment: Bactericidal activity against stationary-phase cultures (CFU counts); type: cell-based; conditions: 20 μg/mL of test compound
[7] = tested on: Coagulase negative staphylococcus stationary phase bacteria; experiment: as above; type: cell-based, Coagulase negative staphylococcus (CNS); conditions: 5 μg/mL of test compound
[8] = tested on: Enterococcus stationary phase bacteria; experiment: as above; type: cell-based; conditions: 5 μg/mL of test compound
[9] = tested on: Propionibacterium acnes stationary phase bacteria; experiment: as above; type: cell-based; conditions: 10 μg/mL of test compound
[10] = tested on: E. coli K12 stationary phase bacteria; experiment: as above; type: cell-based, Escherichia coli K12; conditions: 10 μg/mL of test compound
[11] = tested on: Streptococcus pneumoniae stationary phase bacteria; experiment: as above; type: cell-based; conditions: 10 μg/mL of test compound

Compound `Cc1cc(N2CCC(c3ccccc3)C2)c2cc(OCCc3ccccc3)ccc2n1.Cl` (centres unmarked) [Example 6, 2-Methyl-6-phenethyloxy-4-(3-phenylpyrrolidin-1-yl)quinoline hydrochloride] has a log kill [1] of 6.16.
With `Cc1cc(N2CCC(Cc3ccccc3)C2)c2cc(Oc3ccccc3)ccc2n1.Cl` (centres unmarked) [Example 8, 4-(3-Benzylpyrrolidin-1-yl)-2-methyl-6-phenoxyquinoline hydrochloride] the log kill [2] was 0.97, the log kill [3] was 6.34 and the log kill [4] was 3.70. It also gave a log kill [5] of 5.76.
`COc1ccc(C2CCN(c3cc(C)nc4ccc(Oc5ccccc5)cc34)C2)cc1.Cl` (centres unmarked) [Example 9, 4-[3-(4-Methoxyphenyl)pyrrolidin-1-yl]-2-methyl-6-phenoxyquinoline hydrochloride] gave a log kill [6] of 6.42.
In the case of `Cc1cc(N2CCC(c3ccccc3)C2)c2cc(NC(=O)c3cc(C)[nH]n3)ccc2n1.Cl` (centres unmarked) [Example 22, 5-Methyl-1H-pyrazole-3-carboxylic acid [2-methyl-4-(3-phenylpyrrolidin-1-yl)-quinolin-6-yl]amide hydrochloride], the log kill [7] is reported as 5.99 and the log kill [8] is reported as 3.22.
In the case of `Cc1cc(N2CCC(c3ccccc3)C2)c2cc(Oc3ccccc3)ccc2n1.Cl` (centres unmarked) [Example 39, 2-Methyl-6-phenoxy-4-(3-phenylpyrrolidin-1-yl)quinoline hydrochloride], the log kill [9] is reported as 6.34, the log kill [10] is reported as 6.80 and the log kill [11] is reported as 7.32.
